Experimental data as given in patent publication US20070299089A1, “Use of A2A Adenosine Receptor Agonists in the Treatment of Ischemia” (CV THERAPEUTICS, INC., priority 2006, published 2007).
Converted amounts (≈) assume the structure as drawn.

Key:
mouse isolated hearts [1] = experiment: Coronary vascular resistance in Langendorff-perfused isolated hearts, Protocol 1 (CPP lowered to 30 mmHg for 20 min, then restored to 65 mmHg); settings: for increase in CVR during lowering of CPP: n=6, p<0.001
Method: (§1) The objective of this example was to determine whether the selective and stable A2A agonist, regadenoson, can prevent or modify coronary microcirculation vasoconstriction during ischemia. To this purpose, in 60 mouse isolated hearts perfused in Langendorff configuration coronary vascular resistance (CVR) was continuously monitored for 70 min during various interventions using two different protocols. In hearts (n=9) perfused at a constant coronary perfusion pressure (CPP) of 65 mmHg CVR remained stable throughout the 70 min of the experiment.
In Protocol 1, CPP was lowered to 30 mmHg at 20 min, maintained for the following 20 min and restored to 65 mmHg for the remaining 30 min. In untreated hearts (n=12), lowering CPP for 20 min increased CVR up to a maximum of 191%±9 above baseline (P<0.001).

mouse isolated hearts [2] = experiment: Coronary vascular resistance in Langendorff-perfused isolated hearts, Protocol 2 (CPP lowered to 30 mmHg and maintained for 50 min); settings: n=6
Method: as §1
In Protocol 2, CPP was lowered to 30 mmHg at 20 min and maintained for the remaining 50 min. In untreated hearts (n=9), the sustained lowering of CPP was accompanied by a progressive rise in CVR up to the end of the experiment when it reached a maximum of 240%±21 above baseline. Addition of regadenoson (10 nM) to the perfusate either at 10 (n=6) or 30 (n=6) min after lowering CPP caused a rapid and progressive vasodilation thereby bringing CVR to baseline values within 10 min. In summary, the isolated heart reacts to lowering of CPP with a progressive and severe vasoconstriction that can be prevented by pre-treatment with an A2A agonist.

Solubility in water = assay type: physicochemical
Method: In one aspect of this invention, mammalian ischemia is treated with a pharmaceutical composition including CVT-3146—regadenoson. Regadenoson has solubility in water of about 50 micrograms/mL. Therefore, regadenoson can be dissolved and administered in water so long as the desired weight amount of regadenoson can be administered in an acceptable volume. For example, a dose of about 400 micrograms can be administered in 8 mL of water. If this volume is too great for administration purposes, or if the pharmaceutical composition will be stored at other than room temperature (RT), then additional ingredients can be added to the composition to increase the solubility of regadenoson in the composition and/or to provide the resulting pharmaceutical composition with other improved properties such as improved stability and storage properties.

CNC(=O)c1cnn(-c2nc(N)c3ncn([C@@H]4O[C@H](CO)[C@@H](O)[C@H]4O)c3n2)c1 [regadenoson, (1-{9-[(4S,2R,3R,5R)-3,4-dihydroxy-5-(hydroxymethyl)oxolan-2-yl]-6-aminopurin-2-yl}pyrazol-4-yl)-N-methylcarboxamide]
maximum increase in CVR above baseline during lowering of CPP (mouse isolated hearts [1]; regadenoson 3 nM, CPP 30 mmHg for 20 min, n=6, untreated hearts 191%±9): 131%±15 | elevated CVR remaining after restoring CPP to 65 mmHg (mouse isolated hearts [1]; regadenoson 3 nM, untreated hearts 153%±10 above baseline): significantly reduced | increase in CVR during lowering of CPP (mouse isolated hearts [1]; regadenoson 10 nM, CPP 30 mmHg for 20 min): abolished the increase in CVR | elevated CVR remaining after restoring CPP to 65 mmHg (mouse isolated hearts [1]; regadenoson 10 nM, p<0.01): abolished | increase in CVR during lowering of CPP (mouse isolated hearts [1]; regadenoson 30 nM, CPP 30 mmHg for 20 min): abolished the increase in CVR | elevated CVR remaining after restoring CPP to 65 mmHg (mouse isolated hearts [1]; regadenoson 30 nM, p<0.01): abolished | time to bring CVR to baseline values (mouse isolated hearts [2]; regadenoson 10 nM added to perfusate 10 min after lowering CPP): ≤ 10 min | time to bring CVR to baseline values (mouse isolated hearts [2]; regadenoson 10 nM added to perfusate 30 min after lowering CPP): ≤ 10 min | solubility (Solubility in water): ~50 µg/mL (≈ 128 µM)
